What all share (type): cell-based
The subject of one assay is 3T3 cells. The assay can be described thus: MTT cell proliferation assay. The settings on record: Mus musculus, NIH3T3, approximately 64-72 hours. As for the experimental part:
(§1) The MTT cell proliferation assay was used to study the cytotoxic properties of the compounds. The assay was performed according to the method described by Roche Molecular Biochemicals, with minor modifications. The assay is based on the cleavage of the tetrazolium salt, MTT, in the presence of an electron-coupling reagent. The water-insoluble formazan salt produced must be solubilized in an additional step. Cells grown in a 96-well tissue culture plate were incubated with the MTT solution for approximately 4 hours. After this incubation period, a water-insoluble formazan dye formed. After solubilization, the formazan dye was quantitated using a scanning multi-well spectrophotometer (ELISA reader). […] The cells were seeded at 5,000-10,000 cells in each well of 96-well plate in 100 μL of fresh culture medium and were allowed to attach overnight. The stock solutions of the compounds were diluted in 100 μL cell culture medium to obtain eight concentrations of each test compound, ranging from 1 nM to 30 μM. […] All optical densities were measured at 490 nm using a Vmax Kinetic Microplate Reader (Molecular Devices). In most cases, the assay was performed in duplicate and the results were presented as a mean percent inhibition to the negative control±SE. The following formula was used to calculate the percent of inhibition: Inhibition (%)=(1−(ODo/OD))×100.
(§2) The compounds were tested against Z138, MM1S and 3T3 cells. The Z138 cell line is a mature B-cell acute lymphoblastic leukemia cell line derived from a patient with chronic lumphocytic leukemia. The MM1S cell line was established from the peripheral blood of a human multiple myeloma patient. 3T3 cells are standard fibroblast cells; they were originally isolated from Swiss mouse embryo tissue.
On the technique in general: Formazan colour is commonly taken as a measure of viable cells.

A further assay has as its system Z138 cells. Briefly: MTT cell proliferation assay. The settings on record: Homo sapiens, Z-138, approximately 64-72 hours. Here is the method: as §1, §2
The next assay concerns MM1S cells. Briefly: MTT cell proliferation assay. The settings on record: Homo sapiens, MM1.S, approximately 64-72 hours. As for the experimental part:
as §1, §2

The target of the next assay is T1, CRM1 (Homo sapiens, UniProt O14980).
T1 construct: endogenous in cells; host or cells: U2OS cells stably expressing Rev-GFP
T1 sequence (O14980 whole entry): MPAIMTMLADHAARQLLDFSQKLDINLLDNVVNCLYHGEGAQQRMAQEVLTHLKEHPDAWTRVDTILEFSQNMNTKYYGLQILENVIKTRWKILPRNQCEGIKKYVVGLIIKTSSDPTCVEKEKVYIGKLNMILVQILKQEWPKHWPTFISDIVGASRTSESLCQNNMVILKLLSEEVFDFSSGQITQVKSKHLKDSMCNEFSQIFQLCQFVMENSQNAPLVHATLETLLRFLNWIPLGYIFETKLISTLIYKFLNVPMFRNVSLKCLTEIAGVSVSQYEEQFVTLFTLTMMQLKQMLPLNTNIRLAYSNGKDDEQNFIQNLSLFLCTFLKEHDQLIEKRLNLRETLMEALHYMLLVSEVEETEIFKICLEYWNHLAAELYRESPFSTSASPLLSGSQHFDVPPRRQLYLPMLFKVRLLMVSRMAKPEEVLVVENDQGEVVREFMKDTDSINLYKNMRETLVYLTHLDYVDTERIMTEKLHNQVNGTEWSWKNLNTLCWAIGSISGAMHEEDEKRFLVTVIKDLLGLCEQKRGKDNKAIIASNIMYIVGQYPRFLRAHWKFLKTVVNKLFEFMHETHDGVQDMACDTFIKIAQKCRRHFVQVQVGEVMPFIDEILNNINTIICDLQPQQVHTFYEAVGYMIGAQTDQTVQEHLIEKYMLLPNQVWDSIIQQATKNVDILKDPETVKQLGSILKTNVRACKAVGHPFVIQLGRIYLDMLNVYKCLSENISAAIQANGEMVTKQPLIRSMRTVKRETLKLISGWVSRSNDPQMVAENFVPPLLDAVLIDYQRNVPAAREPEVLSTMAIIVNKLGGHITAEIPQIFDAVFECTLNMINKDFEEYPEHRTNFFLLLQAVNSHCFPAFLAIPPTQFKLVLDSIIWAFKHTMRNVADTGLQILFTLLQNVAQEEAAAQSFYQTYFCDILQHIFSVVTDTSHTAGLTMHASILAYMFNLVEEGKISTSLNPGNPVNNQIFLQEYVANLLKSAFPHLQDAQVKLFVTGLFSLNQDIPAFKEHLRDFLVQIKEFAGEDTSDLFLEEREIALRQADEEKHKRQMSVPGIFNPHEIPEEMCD
Briefly: Inhibition of nuclear export, RevGFP assay in U2OS-RevGFP cells. To be noted: approximately 1 hour incubation. Here is the method: The inhibition of CRM1 mediated nuclear export by compounds of the invention was determined in a RevGFP assay. Rev is a protein from human immunodeficiency virus type 1 (HIV-1) and contains a nuclear export signal (NES) in its C-terminal domain and a nuclear localization signal (NLS) in its N-terminal domain. Nuclear export of Rev protein is dependent on the classical NES/CRM1 pathway (Neville et al, 1997, Kau et al, 2003).
In this assay, U2OS-RevGFP cells were seeded onto clear-bottom, black, 384-well plates the day before the experiment. Compounds were serially diluted 1:2 starting from 40 μM in a separate 384-well plate in DMEM, and then transferred onto cells. Cells were incubated with compound for approximately 1 hour before fixation with 3.7% formaldehyde and nuclei staining with Hoechst 33258. The amount of GFP in cell nuclei was measured and compound IC50s were determined (Kau et al, 2003).

The term IC50 denotes the concentration that gives 50% inhibition. Lower therefore signals greater potency. Turning to `CC(C)OC(=O)/C(=C/n1cnc(-c2cc(C(F)(F)F)cc(C(F)(F)F)c2)n1)c1cncc(F)c1` [Compound 119, isopropyl (E)-3-(3-(3,5-bis(trifluoromethyl)phenyl)-1H-1,2,4-triazol-1-yl)-2-(5-fluoropyridin-3-yl)acrylate], the IC50 in the assay with 3T3 cells is over 30 µM; in the assay on Z138 cells it was 0.1 to 5 µM; with MM1S cells, 0.1 to 5 µM; against CRM1, 0.1 to 5 µM.

With `N#C/C(=C/n1cnc(-c2cc(C(F)(F)F)cc(C(F)(F)F)c2)n1)c1ccncc1` [Compound 105, (E)-3-(3-(3,5-bis(trifluoromethyl)phenyl)-1H-1,2,4-triazol-1-yl)-2-(pyridin-4-yl)acrylonitrile], the results for the half-inhibitory concentration (IC50) in the assay on 3T3 cells, in the assay with MM1S cells and against CRM1 were over 30 µM, 0.1 to 5 µM and 0.1 to 5 µM, respectively.

In the case of `Cc1noc(C)c1/C(=C\n1cnc(-c2cc(C(F)(F)F)cc(C(F)(F)F)c2)n1)C(=O)OC(C)C` [Compound 116, isopropyl (E)-3-(3-(3,5-bis (trifluoromethyl)phenyl)-1H-1,2,4-triazol-1-yl)-2-(3,5-dimethylisoxazol-4-yl) acrylate], the half-inhibitory concentration (IC50) with MM1S cells and at CRM1 was 0.1 to 5 µM in each case.

Turning to `NC(=O)/C(=C/n1cnc(-c2cc(C(F)(F)F)cc(C(F)(F)F)c2)n1)c1ccnc(C(F)(F)F)c1` [Compound 147, (E)-3-(3-(3,5-bis(trifluoromethyl)phenyl)-1H-1,2,4-triazol-1-yl)-2-(2-(trifluoromethyl)pyridin-4-yl)acrylamide], the IC50 is 0.1 to 5 µM in the assay on 3T3 cells, 0.1 to 5 µM in the assay with Z138 cells, under 0.1 µM in the assay with MM1S cells and under 0.1 µM at CRM1.

With `CC(C)OC(=O)/C(=C/n1cnc(-c2cc(C(F)(F)F)cc(C(F)(F)F)c2)n1)c1cncnc1` [Compound 115, isopropyl (E)-3-(3-(3,5-bis(trifluoromethyl)phenyl)-1H-1,2,4-triazol-1-yl)-2-(pyrimidin-5-yl)acrylate], the IC50 in the assay on MM1S cells and against CRM1 was 0.1 to 5 µM in each case.

As to `NC(=O)/C(=C/n1cnc(-c2cc(C(F)(F)F)cc(C(F)(F)F)c2)n1)c1cncc(F)c1` [Compound 132, (E)-3-(3-(3,5-bis(trifluoromethyl)phenyl)-1H-1,2,4-triazol-1-yl)-2-(5-fluoropyridin-3-yl)acrylamide], at CRM1, the IC50 is under 0.1 µM.

Take `CC(C)OC(=O)/C(=C/n1cnc(-c2cc(C(F)(F)F)cc(C(F)(F)F)c2)n1)c1cccnc1` [Compound 101, (E)-isopropyl 3-(3-(3,5-bis(trifluoromethyl)phenyl)-1H-1,2,4-triazol-1-yl)-2-(pyridin-3-yl)acrylate]: the IC50 in the assay with 3T3 cells was 5 to 30 µM; in the assay with Z138 cells, 0.1 to 5 µM; in the assay on MM1S cells, under 0.1 µM; on CRM1 it was 5 to 30 µM.

Take `Cn1cc(/C(=C\n2cnc(-c3cc(C(F)(F)F)cc(C(F)(F)F)c3)n2)C(N)=O)cn1` [Compound 114, (E)-3-(3-(3,5-bis(trifluoromethyl)phenyl)-1H-1,2,4-triazol-1-yl)-2-(1-methyl-1H-pyrazol-4-yl)acrylamide]: the IC50 is under 0.1 µM in the assay with MM1S cells and 0.1 to 5 µM on CRM1.

On to `NC(=O)/C(=C\n1cnc(-c2cc(C(F)(F)F)cc(C(F)(F)F)c2)n1)c1ccnc(F)c1` [Compound 155, (Z)-3-(3-(3,5-bis(trifluoromethyl)phenyl)-1H-1,2,4-triazol-1-yl)-2-(2-fluoropyridin-4-yl)acrylamide], for which the concentration for half-maximal inhibition (IC50) in the assay on 3T3 cells is 0.1 to 5 µM; in the assay with Z138 cells, under 0.1 µM; in the assay with MM1S cells it was under 0.1 µM; on CRM1, under 0.1 µM.

Turning to `NC(=O)/C(=C/n1cnc(-c2cc(C(F)(F)F)cc(C(F)(F)F)c2)n1)c1ccc(Cl)nc1` [Compound 143, (E)-3-(3-(3,5-bis(trifluoromethyl)phenyl)-1H-1,2,4-triazol-1-yl)-2-(6-chloropyridin-3-yl)acrylamide], the concentration for half-maximal inhibition (IC50) was over 30 µM with 3T3 cells, 0.1 to 5 µM in the assay with Z138 cells, under 0.1 µM in the assay on MM1S cells and 0.1 to 5 µM at CRM1.

As for `NC(=O)/C(=C/n1cnc(-c2cc(C(F)(F)F)cc(C(F)(F)F)c2)n1)c1ccncc1` [Compound 108, (E)-3-(3-(3,5-bis(trifluoromethyl)phenyl)-1H-1,2,4-triazol-1-yl)-2-(pyridin-4-yl)acrylamide], the half-inhibitory concentration (IC50) was over 30 µM with 3T3 cells, 0.1 to 5 µM in the assay with Z138 cells, under 0.1 µM in the assay with MM1S cells and under 0.1 µM at CRM1.

`N#C/C(=C/n1cnc(-c2cc(C(F)(F)F)cc(C(F)(F)F)c2)n1)c1cccnc1` [Compound 102, (E)-3-(3-(3,5-bis(trifluoromethyl)phenyl)-1H-1,2,4-triazol-1-yl)-2-(pyridin-3-yl)acrylonitrile]: the 50% inhibitory concentration (IC50) in the assay with 3T3 cells lay within 5 to 30 µM; with Z138 cells, 0.1 to 5 µM; with MM1S cells it was 0.1 to 5 µM; at CRM1, 0.1 to 5 µM.

Regarding `N#Cc1cncc(/C(=C\n2cnc(-c3cc(C(F)(F)F)cc(C(F)(F)F)c3)n2)C(N)=O)c1` [Compound 148, (E)-3-(3-(3,5-bis(trifluoromethyl)phenyl)-1H-1,2,4-triazol-1-yl)-2-(5-cyanopyridin-3-yl)acrylamide], the IC50 in the assay with 3T3 cells was over 30 µM; with Z138 cells it was under 0.1 µM; in the assay on MM1S cells, under 0.1 µM; against CRM1, under 0.1 µM.

Turning to `NC(=O)/C(=C/n1cnc(-c2cc(C(F)(F)F)cc(C(F)(F)F)c2)n1)c1nccs1` [Compound 111, (Z)-3-(3-(3,5-bis(trifluoromethyl)phenyl)-1H-1,2,4-triazol-1-yl)-2-(thiazol-2-yl)acrylamide], the half-maximal inhibitory concentration (IC50) in the assay with 3T3 cells was over 30 µM; with MM1S cells, under 0.1 µM; at CRM1 it was under 0.1 µM.

Turning to `NC(=O)/C(=C/n1cnc(-c2cc(C(F)(F)F)cc(C(F)(F)F)c2)n1)c1cccnc1` [Compound 104, (E)-3-(3-(3,5-bis(trifluoromethyl)phenyl)-1H-1,2,4-triazol-1-yl)-2-(pyridin-3-yl)acrylamide], the IC50 is 0.1 to 5 µM with 3T3 cells, under 0.1 µM in the assay on Z138 cells, under 0.1 µM in the assay on MM1S cells and 0.1 to 5 µM against CRM1.

As for `Cc1noc(C)c1/C(=C\n1cnc(-c2cc(C(F)(F)F)cc(C(F)(F)F)c2)n1)C(N)=O` [Compound 118, (E)-3-(3-(3,5-bis(trifluoromethyl)phenyl)-1H-1,2,4-triazol-1-yl)-2-(3,5-dimethylisoxazol-4-yl) acrylamide], the half-inhibitory concentration (IC50) with 3T3 cells is over 30 µM; in the assay on Z138 cells, 0.1 to 5 µM; in the assay with MM1S cells, 0.1 to 5 µM; against CRM1, 0.1 to 5 µM.

For the compound `COc1ccc(/C(=C\n2cnc(-c3cc(C(F)(F)F)cc(C(F)(F)F)c3)n2)C(=O)OC(C)C)cn1` [Compound 120, isopropyl (E)-3-(3-(3,5-bis (trifluoromethyl)phenyl)-1H-1,2,4-triazol-1-yl)-2-(6-methoxypyridin-3-yl) acrylate], the IC50 with 3T3 cells is over 30 µM; in the assay on Z138 cells it was 0.1 to 5 µM; with MM1S cells, 0.1 to 5 µM; against CRM1, 0.1 to 5 µM.

As to `O=C(O)/C(=C/n1cnc(-c2cc(C(F)(F)F)cc(C(F)(F)F)c2)n1)c1cccnc1` [Compound 103, (E)-3-(3-(3,5-bis(trifluoromethyl)phenyl)-1H-1,2,4-triazol-1-yl)-2-(pyridin-3-yl)acrylic acid], the IC50 in the assay with 3T3 cells, in the assay with Z138 cells and with MM1S cells was over 30 µM throughout.

For the compound `CN(C)C(=O)/C(=C/n1cnc(-c2cc(C(F)(F)F)cc(C(F)(F)F)c2)n1)c1ccncc1` [Compound 113, (E)-3-(3-(3,5-bis(trifluoromethyl)phenyl)-1H-1,2,4-triazol-1-yl)-N,N-dimethyl-2-(pyridin-4-yl)acrylamide], the values for the 50% inhibitory concentration (IC50) in the assay with MM1S cells and at CRM1 were 0.1 to 5 µM and 5 to 30 µM, respectively.

Regarding `NC(=O)/C(=C/n1cnc(-c2cc(C(F)(F)F)cc(C(F)(F)F)c2)n1)c1ccccc1` [Compound 146, (E)-3-(3-(3,5-bis(trifluoromethyl)phenyl)-1H-1,2,4-triazol-1-yl)-2-phenylacrylamide], the concentration for half-maximal inhibition (IC50) with 3T3 cells was over 30 µM; with Z138 cells it was 0.1 to 5 µM; in the assay with MM1S cells, 0.1 to 5 µM.

As to `CC(C)OC(=O)/C(=C/n1cnc(-c2cc(C(F)(F)F)cc(C(F)(F)F)c2)n1)c1cnn(C)c1` [Compound 130, isopropyl (E)-3-(3-(3,5-bis(trifluoromethyl)phenyl)-1H-1,2,4-triazol-1-yl)-2-(1-methyl-1H-pyrazol-4-yl)acrylate], the half-maximal inhibitory concentration (IC50) in the assay with MM1S cells is under 0.1 µM; on CRM1, 0.1 to 5 µM.

For the origin of these results see US11945794B2, “Nuclear transport modulators and uses thereof” (Karyopharm Therapeutics Inc., priority 2013, dated 2024).
